From PubChem BioAssay (NCI) come the findings set out here.

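A five-concentration, 48-hour dose response in 96-well plates underlies each endpoint, interpolated linearly between surrounding concentrations. GI50 is the concentration that inhibits growth by half. TGI denotes the concentration required for complete inhibition of growth.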 Bounds are passed on as bounds.

Holding throughout (experiment): inhibition of tumour cell growth, NCI panel, 48 h
Test [1] has as its system CAKI-1 renal.
For test [2], the system named is DU-145 prostate.
The subject of test [3] is EKVX NSCLC.
In test [4] the test system is HOP-92 NSCLC.
Test [5] has as its system PC-3 prostate.
The test system of test [6] is SK-MEL-2 melanoma.
In test [7] the test system is SK-MEL-5 melanoma.
In test [8] the test system is SK-OV-3 ovarian.
In test [9] the test system is T-47D breast.
The subject of test [10] is TK-10 renal.

Regarding `CC(=O)O[C@H]1C[C@H]2C(=S)Nc3ccccc3C(=S)N2C1`, the TGI in test [1], in test [2], in test [3], in test [4], in [5] and in [6] was above 100 µM each time. In addition, the TGI in test [7], in test [8], in test [9] and in test [10] was above 100 µM in each case.

`Nc1ccc(Oc2ccc(C34CC5CC6C3CC3CC4C(C5)C6(c4ccc(Oc5ccc(N)c(O)c5)cc4)C3)cc2)cc1O`: the TGI is 27.7 µM in test [1]; above 43.5 µM in test [2]; 22.2 µM in test [3]; 8.41 µM in [4]; 11.9 µM in [5]; 39 µM in test [6]. Moreover, the TGI in test [7] was 9.24 µM; in [8], 21.7 µM; in test [9] it was above 63.7 µM; in test [10] it was 19 µM.

In the case of `CCCCCCCCCCCCCCCCCCOCC(COP(=O)([O-])OCC[N+](C)(C)C)OC` (stereo not given), the TGI in test [1] is 44.3 µM; in test [2], above 100 µM; in test [3] it was 70.3 µM; in test [4], 25.4 µM; in test [5], 57.2 µM; in test [6], 54.9 µM. Also, the TGI in [7] was 62.9 µM; in test [8], 46 µM; in test [9] it was above 100 µM; in test [10], 41.5 µM.

`C=C(C(=O)OC)c1cc2ccccc2n1S(=O)(=O)c1ccccc1`: the TGI in [1] amounted to 2.4 µM; in test [2] it was 8.51 µM; in [3], 37.7 µM; in [4], 3.34 µM; in test [5] it was 9.51 µM; in [6], 10.5 µM. Moreover, the TGI turned out to be 5.36 µM in test [7], 26 µM in test [8], 5.51 µM in test [9] and 3.91 µM in test [10].

Consider `Oc1cccc(-c2cn3cc(C(F)(F)F)ccc3n2)c1`, for which the TGI was above 100 µM in [1]; 72.5 µM in test [2]; 70.9 µM in [3]; above 100 µM in [4]; above 100 µM in [5]; above 100 µM in test [6]. The TGI in [7] was 56.5 µM; in test [8], above 100 µM; in [9], 21.2 µM; in [10], 73.3 µM.

As to `c1ccc2nc(CCC3CCCCN3)ccc2c1` (stereo not given), the TGI in test [1], in test [2], in test [3], in test [4], in [5] and in [6] was above 100 µM in each case. Also, the TGI in [7], in test [8], in test [9] and in [10] was above 100 µM each time.

In the case of `CCOc1ccc2nc(NC(NC(=O)c3cccnc3)(C(F)(F)F)C(F)(F)F)sc2c1`, the TGI in test [1] is above 100 µM; in test [2] it was above 100 µM; in test [3], 79.4 µM; in [4], 80.6 µM; in test [5], 78.6 µM; in test [6], above 100 µM. The TGI in test [7] is 49.2 µM; in [8], above 100 µM; in test [9], 58.4 µM; in test [10], above 100 µM.

`Oc1ccc(C#CCOc2ccccc2)cc1CNCCN(Cc1ccccn1)Cc1ccccn1`: the GI50 in test [1] is 1.33 µM; in test [2] it was 1.08 µM; in test [3], 1.24 µM; in [4], 1.57 µM; in test [5], 0.799 µM; in test [6] it was 2.08 µM. The GI50 is 1.49 µM in test [7], 0.944 µM in [8], 2.88 µM in [9] and 1.22 µM in test [10]. In addition, the TGI turned out to be 2.75 µM in test [1]; 2.95 µM in test [2]; 3.33 µM in test [3]; 4.1 µM in test [4]; 4.06 µM in test [5]; 4.85 µM in test [6]. The TGI was 2.84 µM in [7], 2.27 µM in test [8], 13.8 µM in [9] and 3.06 µM in test [10].

Regarding `C/C(=N\N=C(N)N)C(CN(C)C)C(c1ccccc1)c1c(O)c2ccccc2oc1=O` (stereo not given), the TGI in [1], in test [2], in test [3], in [4], in test [5] and in [6] was above 100 µM each time. Besides, the TGI in test [7], in [8], in [9] and in test [10] was above 100 µM each time.

As for `CC1CCc2sc3[nH]c(=S)n(-c4ccccc4)c(=O)c3c2C1` (stereo not given), the TGI in test [1] is above 100 µM; in test [2], above 100 µM; in test [3], above 100 µM; in [4] it was above 100 µM; in test [5], above 100 µM; in test [6], 93.7 µM. The TGI in [7], in [8], in test [9] and in test [10] was above 100 µM throughout.

As to `CC12CCC(C(Nc3ccccn3)C1=O)C2(C)C` (stereo not given), the TGI in test [1], in test [2], in [3], in [4], in test [5] and in test [6] was above 100 µM in each case. Besides, the TGI in test [7], in test [8], in test [9] and in test [10] was above 100 µM throughout.

Consider `C[C@]1(O)O[C@@H]2OCC[C@@H]2C2=C1C(=O)c1ccccc1C2=O`, for which the TGI in [1] worked out at 34.7 µM; in test [2], 30.4 µM; in test [3], 37.1 µM; in test [4], 31 µM; in test [5], 54.8 µM; in test [6], 32 µM. Further, the TGI in test [7] was found to be 24.8 µM; in test [8], 45.6 µM; in test [9] it was 59.1 µM; in [10], 35.5 µM.

For the compound `COC(=O)c1cc(C(=CCC[C@H]2CC[C@@]3(C)C(CCC4C3CC[C@@]3(C)C4CC[C@@H]3C(C)CCCC(C)C)C2)c2cc(Cl)c(OC(=O)c3ccccc3)c(C(=O)OC)c2)cc(Cl)c1OC(=O)c1ccccc1` (stereo not given in full), the TGI in [1], in test [2], in test [3], in test [4], in test [5] and in test [6] was above 10 µM in each case. The TGI in test [7], in test [8], in test [9] and in [10] was above 10 µM each time.

For `CC(=O)/C=C(\O)c1[nH]c(C(=O)O)cc1C1CCN(Cc2ccccc2)C1=O` (stereo not given), the TGI in test [1] was above 100 µM; in test [2] it was 59.2 µM; in [3] it was 60.6 µM; in test [4], 58.8 µM; in test [5], above 100 µM; in [6], 54.9 µM. For the same compound, the TGI is 42.9 µM in test [7], 57.7 µM in test [8], 49.8 µM in [9] and above 100 µM in test [10].

For `O=C(OCCC12CC3CC(CC(C3)C1)C2)c1ccc(NCc2cc(O)ccc2O)cc1`, the TGI in test [1] amounted to 1.11 µM; in [2], 13.7 µM; in test [3] it was 4.88 µM; in [4] it was 16.8 µM; in [5], 14.5 µM; in [6], 2.83 µM. Also, the TGI in test [7] was found to be 2.51 µM; in test [8], 13.1 µM; in test [9] it was 0.584 µM; in test [10], 4.65 µM.

For `COc1ccc2cc(C(=O)NCCCNC(=O)c3ccc4cc(OC)ccc4c3)ccc2c1`, the TGI in [1] is above 100 µM; in test [2] it was above 100 µM; in [3], above 100 µM; in test [4], 45.2 µM; in test [5], above 100 µM; in [6], above 100 µM. The TGI in [7] is above 100 µM; in test [8], above 65 µM; in [9] it was above 100 µM; in test [10] it was above 100 µM.

Regarding `c1ccc2c(c1)CC1COc3ccccc3C1O2` (stereo not given), the TGI in test [1], in test [2], in test [3], in test [4], in test [5] and in test [6] was above 100 µM in each case. In addition, the TGI in test [7] is 37.9 µM; in test [8] it was above 100 µM; in test [9] it was above 100 µM; in [10], above 100 µM.

In the case of `N=c1c2c(=S)n(-c3ccccc3)c(=S)n(-c3ccccc3)c2nc(SCCN2CCOCC2)n1-c1ccccc1`, the TGI in [1] came to 3.99 µM; in test [2], 3.22 µM; in test [3], 9.58 µM; in test [4], 4.12 µM; in test [5] it was 3.35 µM; in test [6] it was 8.17 µM. For the same compound, the TGI in test [7] is 6.66 µM; in test [8], 15 µM; in test [9] it was 8.03 µM; in test [10], 3.1 µM.

Turning to `NC(=O)CC(N=C1C(=O)OC(C(O)CO)C1=NC(CC(N)=O)C(=O)O)C(=O)O` (stereo not given), the TGI in [1], in test [2], in [3], in test [4], in test [5] and in test [6] was above 100 µM in each case. Further, the TGI in [7], in [8], in test [9] and in test [10] was above 100 µM throughout.

As to `CC1(C)CCC(=O)NC1CC(=O)CC1NC(=O)CCC1(C)C` (stereo not given), the TGI in [1], in test [2], in [3], in test [4], in test [5] and in test [6] was above 100 µM each time. The TGI in test [7], in test [8], in test [9] and in test [10] was above 100 µM in each case.

On to `N#Cc1nc(CCC(c2nc(C#N)c(N)o2)N2C(=O)c3ccccc3C2=O)oc1N` (stereo not given), for which the TGI in [1], in [2], in [3], in test [4], in [5] and in test [6] was above 100 µM in each case. Also, the TGI in test [7], in test [8], in [9] and in [10] was above 100 µM each time.

`COc1ccc(-c2cc(-c3cc(F)c(Cl)cc3Cl)on2)cc1OC`: the TGI in [1] is above 100 µM; in [2], above 100 µM; in [3], above 100 µM; in test [4] it was above 100 µM; in test [5] it was above 100 µM; in test [6], 97.7 µM. Moreover, the TGI in [7] was 43.3 µM; in test [8], above 100 µM; in test [9], above 100 µM; in test [10] it was above 100 µM.

As to `Clc1ncc(Cl)c(Cl)n1`, the TGI was found to be 3.25 µM in [1]; 24.1 µM in test [2]; 30.3 µM in test [3]; 3.43 µM in test [4]; 5.64 µM in [5]; 6.08 µM in test [6]. For the same compound, the TGI in [7] was determined as 12.7 µM; in [8], 14.3 µM; in test [9], 10 µM; in test [10], 23.1 µM.

For the compound `Cc1nnc(-n2c(O)cc(=O)n(-c3ccccc3)c2=S)nc1/C=C/c1ccc(N(C)C)cc1`, the TGI in test [1] is above 57 µM; in test [2] it was above 90.1 µM; in test [3], above 100 µM; in test [4], above 71.9 µM; in [5] it was above 46.2 µM; in test [6], 41.8 µM. Moreover, the TGI in [7] was 21.9 µM; in test [8], above 72 µM; in [9] it was above 60.7 µM; in test [10], above 56.5 µM.

In the case of `N#Cc1ccc(Oc2nc3ccc(C(F)(F)F)cc3nc2-c2ccccc2)cc1`, the TGI in test [1] is 44.3 µM; in [2] it was 34 µM; in test [3], 32.5 µM; in test [4], 27.5 µM; in [5], 27 µM; in test [6], 36.9 µM. Also, the TGI in test [7] is 46.5 µM; in [8], 26.9 µM; in [9] it was 38.5 µM; in [10], 33.6 µM.
